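Assay format: 96-well plates, 48-hour exposure. The concentration for 50% growth inhibition is given as GI50. TGI marks complete inhibition of growth.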
How the values were obtained:
Test in all cases: DTP human tumour cell line panel, 48 h
[1] = test system: CAKI-1 renal
[2] = test system: HS 578T breast
[3] = test system: MALME-3M melanoma
[4] = test system: NCI-H23 lung
[5] = test system: NCI-H460 lung
[6] = test system: SK-MEL-28 melanoma
[7] = test system: SK-MEL-5 melanoma
[8] = test system: SNB-75 CNS
[9] = test system: SR leukemia
[10] = test system: T-47D breast

Compound	GI50 [1] [µM]	TGI [1] [µM]	GI50 [2] [µM]	TGI [2] [µM]	GI50 [3] [µM]	TGI [3] [µM]	GI50 [4] [µM]	TGI [4] [µM]	GI50 [5] [µM]	TGI [5] [µM]	GI50 [6] [nM]	TGI [6] [µM]	GI50 [7] [nM]	TGI [7] [µM]	GI50 [8] [µM]	TGI [8] [µM]	GI50 [9] [nM]	TGI [9] [µM]	GI50 [10] [µM]	TGI [10] [µM]
NS(=O)(=O)c1ccc(N2N=C(c3cccs3)CC2c2ccccc2O)cc1 (stereo not given)	1.47	8.19	0.845	2.7	4.81	13.5	1.3	8.47	1.16	4.24	2120	8.62	1470	5.68	0.437	1.76	1360	> 33.3	2.24	18.8
Nc1cc(-c2ccccc2)n(C(=O)Nc2ccc(Oc3ccccc3)cc2)n1	28.9	77.2	31.9	> 100	> 100	> 100	> 100	> 100	69	> 100	1620	39.2	> 100000	> 100		3.04	22200	43.5	86.2	> 100
Cc1c(C(N)=O)sc2c1c(=O)n(Cc1ccccc1)c1nnc(S(=O)(=O)CC(=O)Nc3ccc(Cl)cc3)n21	2.94	11.8	2.67	> 100	3.96	17.5	3.13	9.71	2.87	7.64	2980	8.45	6020	20.7	2.15	5.48	6710	30.3	3.89	14.3
Cn1c2ccccc2c2[nH]c3ccccc3c(=O)c21		> 100		> 100		> 100		> 100		> 100		> 100		> 100		> 100		> 100		> 100
COC(=O)Nc1nc2ccc(S(=O)(=O)c3ccc(NC(=O)Nc4cc(C(F)(F)F)ccc4F)cc3)cc2[nH]1	> 25	> 25	> 25	> 25	> 25	> 25	> 25	> 25	> 25	> 25	> 25000	> 25	> 25000	> 25	> 25	> 25	> 25000	> 25	> 25	> 25
Cc1cc(Cl)ccc1Nc1nc(C(F)(F)F)ccc1C(=O)Nc1cccc(C(F)(F)F)c1	3.61	17.8	3.95	20.2	1.97	9.17	2.85	11.1	3.07	10.6	4790	16.6	2790	9.34	3.41	11.5	2560	8.28	4.53	23.8
CC1=NN(c2ccccc2)C(=O)C1N=Nc1ccc(S(N)(=O)=O)cc1 (stereo not given)		> 100		> 100		> 100		> 100		> 100		> 100		> 100		> 100		> 100		> 100
CN(CCCN(C)CCC1CCCCC1)CCC1CCCCC1	1.52	3.82	2.26	6.68	1.39	3.03	8.7	22.1	2.65	6.7	1910	3.41	1320	2.61	2.04	6.39	1190	4.21	1.64	4.15
O=c1[nH]nc(-c2ccccc2)c2c(-c3ccccc3)onc12	0.728	> 100	0.255	1.37	0.751	> 90	4.83	> 100	0.383	> 62.6	793	> 100	352		0.96	> 21.9	288		0.595	> 46
O=C1NC(c2ccccc2)N=C2Oc3ccccc3C=C12 (stereo not given)		0.42		7.06		> 100		> 100		> 43.7		> 100		> 100				> 100		> 100
O=CN1N=C(c2ccc(Nc3ccnc4cc(Cl)ccc34)cc2)CC1c1ccc(Cl)cc1 (stereo not given)	0.409	> 100	3.93	> 100			2.77	> 100	0.592	> 100	758	> 100	809	> 100			324	> 100	1.56	> 100
O=C1NC(SCc2ccc(F)cc2)=N/C1=C/c1cccc(OCc2ccc(Cl)cc2)c1			9.36	> 100	26.5	> 100	16.9	> 100	4.39	30.3	> 100000	> 100	> 100000	> 100	10.1	> 100	5050	76.2	13.9	> 100
O=C(Cn1c2ccccc2c2ccncc21)N/N=C\c1ccc2ccccc2c1			23.5	79.2	11.4	45.6	17.6	52.6	13.9	39.9	19200	79.7	23000	> 100	22.2	61.6	6390	> 100	25.2	> 100
C=C(C)C(=O)O[C@H]1CC2=CC(CC(C)=C[C@H]3OC(=O)C(=C)C13)OC2=O (stereo not given in full)		34.4		> 100		40.7		> 100		> 100		31.2		> 100		> 100				36.9
COc1ccc(CN=C(N)N=C(N)N)cc1OC	> 1000	> 1000	> 1000	> 1000	365	> 1000	522	> 1000	> 1000	> 1000	960000	> 1000	223000	> 1000	192	> 1000			907	> 1000

Source: PubChem BioAssay (NCI)
